Measurements from patent US11667602B2, “Compounds and their use” (AstraZeneca AB, priority 2020, dated 2023).
≈ marks a conversion by molar mass, not a printed value.

How the values were obtained:
human RXFP1 = biological target: T1, human RXFP1 (Homo sapiens, UniProt Q9HBX9); test: RXFP1 Hu cAMP (Test A); type: cell-based; set-up: expressed in transfected cells; host or cells: Jump-In T-REx CHO-K1 cells (ThermoFisher), induced with 10 ng/ml doxycycline for 24 h; details: RXFP1 Hu cAMP; for EC50: read-out: Test A EC50
T1 sequence (Q9HBX9 1-757): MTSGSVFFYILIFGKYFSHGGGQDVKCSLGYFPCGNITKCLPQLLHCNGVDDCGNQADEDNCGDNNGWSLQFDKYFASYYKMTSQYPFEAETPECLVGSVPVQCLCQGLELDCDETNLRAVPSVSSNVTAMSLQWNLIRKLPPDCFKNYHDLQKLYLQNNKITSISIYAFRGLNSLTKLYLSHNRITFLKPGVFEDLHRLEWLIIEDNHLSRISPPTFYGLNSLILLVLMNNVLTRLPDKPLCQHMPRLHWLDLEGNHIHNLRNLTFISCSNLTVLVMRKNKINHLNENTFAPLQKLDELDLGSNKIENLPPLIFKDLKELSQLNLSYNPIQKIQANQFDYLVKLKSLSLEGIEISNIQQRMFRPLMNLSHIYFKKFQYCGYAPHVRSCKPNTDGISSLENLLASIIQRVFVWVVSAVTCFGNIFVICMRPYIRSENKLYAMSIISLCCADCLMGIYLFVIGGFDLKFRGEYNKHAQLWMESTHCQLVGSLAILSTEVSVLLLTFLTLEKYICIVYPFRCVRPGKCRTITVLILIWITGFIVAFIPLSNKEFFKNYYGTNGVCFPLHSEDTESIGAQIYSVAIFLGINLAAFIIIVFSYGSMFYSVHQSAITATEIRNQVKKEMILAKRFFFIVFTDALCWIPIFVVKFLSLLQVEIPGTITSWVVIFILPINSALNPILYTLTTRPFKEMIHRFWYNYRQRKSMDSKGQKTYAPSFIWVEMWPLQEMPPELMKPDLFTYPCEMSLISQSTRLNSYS
Summary of the method: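 CHO-K1 (Jump-In T-REx), RXFP1 induced w/ 10 ng/ml doxycycline 24 h, cryopreserved. 0.5 mM IBMX final. cAMP by HTRF, 2 h RT, std curve.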

[1] = Human Hepatocyte Stability (Test D); type: in vitro ADME; details: geometric mean if run multiple times; for hepatocyte CLint at 1 µM: human, cryopreserved pooled human hepatocytes (LiverPool 10-Donor)
Summary of the method: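 Intrinsic clearance (μL/min/10^6 cells), derived as kV/N from the log-linear loss of parent compound. Compound incubated at 37 °C with cryopreserved pooled human hepatocytes, 0.25×10^6 cells in 0.25 mL L-15; dosing solution 100 μM in acetonitrile. Singlicate incubations, cassette LC-MS; repeats reported as geometric mean.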

[2] = Rat Hepatocyte Stability (Test E); type: in vitro ADME; details: geometric mean if run multiple times; for hepatocyte CLint: rat, hepatocytes
Summary of the method: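 Intrinsic clearance in rat hepatocytes, expressed as μl/min/10^6 cells, following the literature integrated DMPK panel method. Repeat determinations combined as geometric mean.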

Solubility (Test F) = type: physicochemical; details: arithmetic mean if run multiple times
Method: The assay was conducted according to the Solubility Assay described in pages 164-167 of Wernevik, J. et al., “A Fully Integrated Assay Panel for Early Drug Metabolism and Pharmacokinetics Profiling”, Assay and Drug Development Technologies, 2020, 18(4), 157-179. Data are reported in Table 36 as solubility ([…]. Where the assay was run multiple times for the same compound, the arithmetic mean is reported.

[3] = Human Plasma Protein Binding (Test B); type: in vitro ADME; details: fraction unbound (fu)
Summary of the method: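 Values given as % free (fu) in human plasma, using the method of Wernevik et al. (2020). For compounds tested more than once, the arithmetic mean is given.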

[4] = Human Liver Microsomal Stability (Test C); type: in vitro ADME; details: for microsomal CLint: human, liver microsomes
Summary of the method: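 CLint (μl/min/mg protein) derived from compound depletion in human liver microsomes following a published standardized early-DMPK protocol; replicate determinations given as arithmetic mean.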

Row | EC50 (human RXFP1) [nM] | hepatocyte CLint at 1 µM [1] [µL/min/1e6 cells] | hepatocyte CLint [2] [µL/min/1e6 cells] | solubility (Solubility (Test F)) [µM] | Test B Human Plasma Protein Binding (% free) [3] [% free] | microsomal CLint [4] [µL/min/mg] | Test A Sinf (human RXFP1) [%] | SMILES | Test D Human Hepatocyte Stability Clint ([1]; human hepatocytes) [μL/min/10^6 cells] | Test E Rat Hepatocyte Stability Clint ([2]; rat hepatocytes) [μL/min/10^6 cells] | Test C Human Liver Microsomal Stability Clint ([4]; human liver microsomes) [µL/min/mg]
1 | > 50000 | 9.2 | 18 | > 1000 | <0.30 | 9.9 |  | COc1cc(F)c(-c2ccc(C(=O)O)cc2)cc1C(=O)N[C@@H]1[C@H](C(=O)Nc2cccc(S(=O)(=O)C(F)(F)F)c2)[C@H]2C=C[C@@H]1C2 (single isomer, unassigned) [Example 553] |  |  | 
2 | 320 | 4.4 | 19 | > 1000 | 3.3 | < 3 | 108 | COc1cc(F)c(O[C@H]2CC[C@@H](C(=O)O)CC2)cc1C(=O)N[C@H]1[C@@H](C(=O)Nc2ccc(OC)c(S(=O)(=O)C(F)(F)F)c2)[C@@H]2C=C[C@H]1C2 [Example 497, (1S,4s)-4-(2-Fluoro-4-methoxy-5-(((1R,2R,3S,4S)-3-((4-methoxy-3-((trifluoromethyl)sulfonyl)phenyl)carbamoyl)bicyclo[2.2.1]hept-5-en-2-yl)carbamoyl)phenoxy)cyclohexane-1-carboxylic acid] |  |  | 
3 | 64 | 45 | 98 | 8 (≈ 4.88 µg/mL) | 0.44 | > 300 | 110 | COc1cc(F)c(O[C@H]2CC[C@@H](C(N)=O)CC2)cc1C(=O)N[C@@H]1[C@H]2CC[C@H](C2)[C@@H]1C(=O)Nc1ccc(F)c(C(F)(F)F)c1 [Example 500, (1R,2S,3R,4S)-3-(5-(((1s,4S)-4-Carbamoylcyclohexyl)oxy)-4-fluoro-2-methoxybenzamido)-N-(4-fluoro-3-(trifluoromethyl)phenyl)bicyclo[2.2.1]heptane-2-carboxamide] |  |  | 
4 | 110 | 13 | 14 | 10 (≈ 6.78 µg/mL) | 6.7 | 110 | 105 | COc1cc(F)c(O[C@H]2CC[C@@](C)(C(=O)O)CC2)cc1C(=O)N[C@@H]1[C@H]2CC[C@H](C2)[C@@H]1C(=O)N[C@@H]1CCCN(S(=O)(=O)C(F)(F)F)C1 [Example 604] |  |  | 
5 |  | 4.7 | 15 | 470 (≈ 264 µg/mL) | 2.7 | 36 |  | COc1cc(Cl)c(O[C@H]2CC[C@@](C)(C(=O)O)CC2)cc1C(=O)N[C@@H]1[C@H]2CC[C@H](C2)[C@@H]1C(=O)NCC1(C)CCC1 [Example 392, (1S,4s)-4-(2-Chloro-4-methoxy-5-(((1S,2R,3S,4R)-3-(((1-methylcyclobutyl)methyl)carbamoyl)bicyclo[2.2.1]heptan-2-yl)carbamoyl)phenoxy)-1-methylcyclohexane-1-carboxylic acid] |  |  | 
6 |  | 3.1 | 32 | 240 (≈ 130 µg/mL) | 4.4 | 38 |  | COc1cc(C)c(O[C@H]2CC[C@@](C)(C(=O)O)CC2)cc1C(=O)N[C@@H]1[C@H]2CC[C@H](C2)[C@@H]1C(=O)NCC1(C)CCC1 [Example 375] |  |  | 
7 |  | < 1.2 | 15 | 910 (≈ 491 µg/mL) | 12 | < 3 |  | COc1cc(C#N)c(O[C@H]2CC[C@@](C)(C(=O)O)CC2)cc1C(=O)N[C@H]1C(C(=O)NCC(C)(C)C)[C@@H]2CC[C@H]1C2 (stereo partly drawn) [Example 621, (1S,4s)-4-(2-cyano-4-methoxy-5-(((1S,2R,3S,4R)-3-(neopentylcarbamoyl)bicyclo[2.2.1]heptan-2-yl)carbamoyl)phenoxy)-1-methylcyclohexane-1-carboxylic acid] |  |  | 

Continued, compound first:

Row | SMILES | EC50 (human RXFP1) [nM] | hepatocyte CLint at 1 µM [1] [µL/min/1e6 cells] | hepatocyte CLint [2] [µL/min/1e6 cells] | solubility (Solubility (Test F)) [µM] | Test B Human Plasma Protein Binding (% free) [3] [% free] | microsomal CLint [4] [µL/min/mg] | Test A Sinf (human RXFP1) [%] | Test D Human Hepatocyte Stability Clint ([1]; human hepatocytes) [μL/min/10^6 cells] | Test E Rat Hepatocyte Stability Clint ([2]; rat hepatocytes) [μL/min/10^6 cells] | Test C Human Liver Microsomal Stability Clint ([4]; human liver microsomes) [µL/min/mg]
8 | COc1cc(C#N)c(O[C@H]2CC[C@@](C)(C(=O)O)CC2)cc1C(=O)N[C@H]1C2CCC(CC2)[C@H]1C(=O)NCC1(C)CCC1 (relative stereo) [Example 539, (1R,4s)-4-(2-Cyano-4-methoxy-5-(((2S*,3R*)-3-(((1-methylcyclobutyl)methyl)carbamoyl)bicyclo[2.2.2]octan-2-yl)carbamoyl)phenoxy)-1-methylcyclohexane-1-carboxylic acid] | 3.1 |  |  | 700 (≈ 396 µg/mL) | 3.2 |  | 102 | 64 | 28 | 63
9 | COc1cc(C#N)c(O[C@H]2CC[C@@](C)(C(=O)O)CC2)cc1C(=O)N[C@@H]1[C@H]2CC[C@H](C2)[C@@H]1C(=O)NCC1(C)CC1 [Example 98] | 55 | 4.9 | 22 | 810 (≈ 436 µg/mL) | 13 | 8.7 | 133 |  |  | 
10 | COc1cc(F)c(O[C@H]2CC[C@@](C)(C(=O)O)CC2)cc1C(=O)N[C@@H]1[C@H]2CC[C@H](C2)[C@@H]1C(=O)N[C@H](C)C(C)(C)C [Example 36, (1S,4s)-4-(5-(((1S,2R,3S,4R)-3-(((R)-3,3-Dimethylbutan-2-yl)carbamoyl)bicyclo[2.2.1]heptan-2-yl)carbamoyl)-2-fluoro-4-methoxyphenoxy)-1-methylcyclohexane-1-carboxylic acid] |  | 5.8 | 7.2 | 22 (≈ 12 µg/mL) | 6.9 | 33 |  |  |  | 
11 | COc1cc(F)c(O[C@H]2CC[C@@](C)(C(=O)O)CC2)cc1C(=O)N[C@@H]1[C@H]2CC[C@H](C2)[C@@H]1C(=O)NCC1CCC1 [Example 2, (1S,4s)-4-(5-(((1S,2R,3S,4R)-3-((cyclobutylmethyl)carbamoyl)bicyclo[2.2.1]heptan-2-yl)carbamoyl)-2-fluoro-4-methoxyphenoxy)-1-methylcyclohexane-1-carboxylic acid] |  | 2 | 27 | > 1000 | 1.9 | 14 |  |  |  | 
12 | COc1cc(F)c(O[C@H]2CC[C@@](C)(C(=O)O)CC2)cc1C(=O)N[C@@H]1[C@H]2CC[C@H](C2)[C@@H]1C(=O)NCC(C)(C)C(F)(F)F [Example 38, (1S,4s)-4-(2-Fluoro-4-methoxy-5-(((1S,2R,3S,4R)-3-((3,3,3-trifluoro-2,2-dimethylpropyl)carbamoyl)bicyclo[2.2.1]heptan-2-yl)carbamoyl)phenoxy)-1-methylcyclohexane-1-carboxylic acid] |  | 4.2 | 9 | 38 (≈ 22.3 µg/mL) | 5.6 | 13 |  |  |  | 
13 | COc1cc(F)c(O[C@H]2CC[C@@](CC#N)(C(=O)O)CC2)cc1C(=O)N[C@@H]1[C@H]2CC[C@H](C2)[C@@H]1C(=O)NCC1(C)CCC1 [Example 424, (1S,4s)-1-(Cyanomethyl)-4-(2-fluoro-4-methoxy-5-(((1S,2R,3S,4R)-3-(((1-methylcyclobutyl)methyl)carbamoyl)bicyclo[2.2.1]heptan-2-yl)carbamoyl)phenoxy)cyclohexane-1-carboxylic acid] |  | 10 | 21 | 990 (≈ 564 µg/mL) | 6.7 | 13 |  |  |  | 
